Assay results reported in patent US20100168112A1, “2-Substituted and 4-substituted aryl nitrone compounds” (RENOVIS, INC., priority 2004, published 2010).

Columns and labels:
[1] = Plasma protein binding (equilibrium dialysis), human plasma; type: in vitro ADME; settings: 1 μg/mL in plasma, dialysis vs phosphate buffer pH 7.4 overnight at 37° C., read-out: Plasma Protein Binding % Bound Human (converted)
Protocol: (§1) Nitrone compounds of this invention were individually dissolved in DMSO to make a stock solution of 1 mg/mL. The compound was spiked into plasma to achieve a final concentration of 1 μg/mL. Spiked plasma and phosphate buffer (0.1M, pH 7.4), 200 μl each, were added to the opposite sides of the membrane in a 96-well equilibrium dialyzer. The dialyzer plate was then covered and equilibrated overnight at 37° C. on an orbital shaker. Aliquots were taken from the plasma and the buffer compartments and prepared by adding blank plasma to samples from the buffer compartments and drug-free phosphate buffer to samples from the plasma compartments to eliminate the matrix effects. The samples were extracted using protein precipitation procedure by adding CH3CN. The samples were analyzed using a LC/MS/MS method. The percentage of free and bound nitrone compound were calculated according to the following formula:
(§2) %Free=[Free Drug/Total Drug]*100=[(Peak Area)buffer/(Peak Area)serum]*100%Bound=100%Free

[2] = DPPH free radical-scavenging/antioxidant assay; type: biochemical; settings: 50 μM DPPH in 80% methanol; 24 h time point; read-out: EC50 (concentration at which a compound reduces by 50% the peak absorbance of DPPH at 520 nm)
Outline: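 Compounds diluted 100-fold from DMSO stocks into 50 μM DPPH in 80% methanol; absorbance at 520 nm followed kinetically to steady state, with the 24 h reading used. EC50 interpolated from OD520 versus concentration; Trolox, BHA, PBN and S-PBN as positive controls, DMSO as vehicle.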

[3] = Plasma protein binding (equilibrium dialysis), rat plasma; type: in vitro ADME; settings: 1 μg/mL in plasma, dialysis vs phosphate buffer pH 7.4 overnight at 37° C., read-out: Plasma Protein Binding % Bound Rat (converted)
Protocol: as §1, §2

fraction unbound at 1 μg/mL [1] | EC50 [2] | fraction unbound at 1 μg/mL [3] | SMILES
0.726 | 500 to 1000 µM | 0.898 | CC(C)(C)/[N+]([O-])=C/c1ccccc1S(C)(=O)=O [Compound 66, N-tert-Butyl-C-(2-methanesulfonylphenyl)nitrone]
0.697 | 500 to 1000 µM | 0.811 | CCS(=O)(=O)c1ccc(/C=[N+](\[O-])C(C)(C)C)c(S(=O)(=O)CC)c1 [Compound 64, N-tert-Butyl-C-(2,4-bis-ethanesulfonylphenyl)nitrone]

The next lines start with the compound.

SMILES | fraction unbound at 1 μg/mL [1] | EC50 [2] | fraction unbound at 1 μg/mL [3]
CC(C)(C)/[N+]([O-])=C/c1ccc(S(=O)(=O)N2CCOCC2)cc1 [Compound 23, N-(tert-Butyl)-C-[4-(morpholine-4-sulfonyl)phenyl]nitrone] | 0.8 | > 1000 µM | 0.782
CC(C)(C)/[N+]([O-])=C/c1ccc(S(C)(=O)=O)cc1 [Compound 62, N-tert-Butyl-C-[4-(methanesulfonyl)phenyl]nitrone] | 0.826 | > 1000 µM | 0.999
CC(C)(C)/[N+]([O-])=C/c1ccc(S(N)(=O)=O)cc1 [Compound 20, N-(tert-Butyl)-C-[4-(sulfamoyl)phenyl]nitrone] | 1 | > 1000 µM | 0.976
CC(C)(C)/[N+]([O-])=C/c1ccc(S(=O)(=O)Nc2cccnc2)cc1 [Compound 26, N-(tert-Butyl)-C-[4-(pyridin-3-ylsulfamoyl)phenyl]nitrone] | 0.238 | > 1000 µM | 0.01
CC(C)(C)/[N+]([O-])=C/c1ccc(S(C)(=O)=O)cc1S(C)(=O)=O [Compound 63, N-tert-Butyl-C-(2,4-bis-methanesulfonylphenyl)nitrone] | 0.867 | 500 to 1000 µM | 0.741
